Results from ChEMBL document CHEMBL2074047, “Functional characterization of mouse cation transporter mOCT2 compared with mOCT1” (Biochem Biophys Res Commun, 2002).

B1: Solute carrier family 22 member 2 (Mus musculus) (protein)
chain: MPTVDDILEHIGEFHLFQKQTFFLLALLSGAFTPIYVGIVFLGFTPNHHCRSPGVAELSQRCGWSPAEELNYTVPGLGSAGEVSFLSQCMRYEVDWNQSTLDCVDPLSSLAANRSHLPLSPCEHGWVYDTPGSSIVTEFNLVCAHSWMLDLFQSLVNVGFFIGAVGIGYLADRFGRKFCLLVTILINAISGVLMAISPNYAWMLVFRFLQGLVSKAGWLIGYILITEFVGLGYRRTVGICYQIAFTVGLLILAGVAYALPNWRWLQFAVTLPNFCFLLYFWCIPESPRWLISQNKNAKAMKIIKHIAKKNGKSVPVSLQSLTADEDTGMKLNPSFLDLVRTPQIRKHTLILMYNWFTSSVLYQGLIMHMGLAGDNIYLDFFYSALVEFPAAFIIILTIDRIGRRYPWAVSNMVAGAACLASVFIPDDLQWLKITVACLGRMGITIAYEMVCLVNAELYPTYIRNLAVLVCSSMCDIGGIVTPFLVYRLTDIWLEFPLVVFAVVGLVAGGLVLLLPETKGKALPETIEDAEKMQRPRKKKEKRIYLQVKKAELS
B2: Solute carrier family 22 member 1 (Mus musculus) (protein)
chain: MPTVDDVLEHVGEFGWFQKQAFLLLCLISASLAPIYVGIVFLGFTPDHHCRSPGVAELSQRCGWSPAEELNYTVPGLGSAGEASFLSQCMKYEVDWNQSTLDCVDPLSSLAANRSHLPLSPCEHGWVYDTPGSSIVTEFNLVCGDAWKVDLFQSCVNLGFFLGSLVVGYIADRFGRKLCLLVTTLVTSLSGVLTAVAPDYTSMLLFRLLQGMVSKGSWVSGYTLITEFVGSGYRRTTAILYQVAFTVGLVGLAGVAYAIPDWRWLQLAVSLPTFLFLLYYWFVPESPRWLLSQKRTTQAVRIMEQIAQKNRKVPPADLKMMCLEEDASERRSPSFADLFRTPSLRKHTLILMYLWFSCAVLYQGLIMHVGATGANLYLDFFYSSLVEFPAAFIILVTIDRIGRIYPIAASNLVAGAACLLMIFIPHELHWLNVTLACLGRMGATIVLQMVCLVNAELYPTFIRNLGMMVCSALCDLGGIFTPFMVFRLMEVWQALPLILFGVLGLSAGAVTLLLPETKGVALPETIEEAENLGRRKSKAKENTIYLQVQTGKSPHT

Key:
[1] = biological target: T1, Solute carrier family 22 member 1 (Mus musculus, UniProt O08966); assay: (§1) TP_TRANSPORTER: inhibition of MPP+ uptake (MPP+: 1 uM) in Xenopus laevis oocytes; assay type: functional, cell-based, Oocyte
T1 sequence (O08966 whole entry): B2 chain

[2] = biological target: T2, Solute carrier family 22 member 2 (Mus musculus, UniProt O70577); assay: as §1; assay type: functional, cell-based, Oocyte
T2 sequence (O70577 whole entry): B1 chain

[3] = substrate: C[n+]1ccc(-c2ccccc2)cc1; assay: TP_TRANSPORTER: uptake in Xenopus laevis oocytes; assay type: functional, cell-based, Oocyte
[4] = substrate: CC[N+](CC)(CC)CC; assay: cells, lysate or membranes named

Molecule	IC50 [1] [µM]	IC50 [2] [µM]	Km [3] [µM]	Km [4] [µM]
C[N+](C)(C)CCO [CHOLINE]	55	217	–	–
CN/C(=N/CCSCc1nc[nH]c1C)NC#N [CIMETIDINE]	0.59	8	–	–
CNC(=O)c1cccnc1 [NICOTINYL METHYLAMIDE]	7340	13700	–	–
CCN(CC)CCNC(=O)c1ccc(N)cc1 [PROCAINAMIDE]	3.9	312	–	–
C=C[C@H]1C[N@@]2CC[C@H]1C[C@H]2[C@H](O)c1ccnc2ccc(OC)cc12 [QUININE]	–	2.8	–	–
CC[N+](CC)(CC)CC [TETRYLAMMONIUM]	0.54	3.5	–	–
B1	–	–	24	35.7
B2	–	–	10	–
